This passage reports TGI and GI50 results from PubChem BioAssay (NCI).

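Assay format: 96-well plates, 48-hour exposure. GI50: concentration for 50% inhibition of growth. TGI is the concentration that stops growth completely.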

Some test systems named below: 786-0 renal; MOLT-4 leukemia; UACC-257 melanoma; MALME-3M melanoma; RXF 393 renal; SW-620 colon; SF-539 CNS; TK-10 renal; HCT-116 colon.
Assay in all cases: growth of human tumour cells (NCI), 48 h

With `c1ccc(COc2cccc3ccc[n+](Cc4ccccc4)c23)cc1`, the TGI was 84.6 µM with 786-0 renal; 51.8 µM in the test on MOLT-4 leukemia; 6.34 µM with UACC-257 melanoma; 19.9 µM in the test on MALME-3M melanoma; 61.9 µM in the test with RXF 393 renal; over 100 µM in the test on SW-620 colon. For the same molecule, the TGI is over 100 µM in the test on SF-539 CNS and 94.6 µM in the test on TK-10 renal.

For the molecule `[Cl-].[La+3].[O-]/N=C(\c1ccccc1)c1ccccn1.[O-]/N=C(\c1ccccc1)c1ccccn1.[O-]/N=C(\c1ccccc1)c1ccccn1`, the GI50 in the test on 786-0 renal is 36 µM; with MOLT-4 leukemia, 37.6 µM; with UACC-257 melanoma, 41.1 µM; in the test on MALME-3M melanoma it was 45.8 µM; with RXF 393 renal it was 29.8 µM; in the test on SW-620 colon, 53.9 µM. For the same molecule, the GI50 in the test on SF-539 CNS is 29.7 µM; with HCT-116 colon, 44 µM; in the test with TK-10 renal, over 74.4 µM. For the same molecule, the TGI in the test with 786-0 renal is over 100 µM; in the test with MOLT-4 leukemia, over 100 µM; with UACC-257 melanoma, over 100 µM; in the test on MALME-3M melanoma it was over 100 µM; with RXF 393 renal, over 90.4 µM; in the test on SW-620 colon, over 100 µM. The TGI with SF-539 CNS was over 85.7 µM; with HCT-116 colon, over 100 µM; with TK-10 renal, over 100 µM.

In the case of `Cn1c2ccccc2c2cc(-c3ccccc3)c3c(c21)C(=O)c1ccccc1C3=O`, the TGI in the test on 786-0 renal is 35.7 µM; with MOLT-4 leukemia it was 92.7 µM; in the test with UACC-257 melanoma it was 42.9 µM; in the test with MALME-3M melanoma, 49.6 µM; in the test with SW-620 colon, 66.5 µM; in the test on SF-539 CNS, 49.2 µM. Further, the results for the TGI in the test with HCT-116 colon and in the test with TK-10 renal were 36.3 µM and over 100 µM, respectively.

As for `CN1CCN(CCCn2c(=O)c3sc4ncccc4c3n3nnc(-c4ccccc4)c23)CC1`, the GI50 is 7.39 µM in the test on 786-0 renal; 1.55 µM in the test on MOLT-4 leukemia; 2.27 µM with UACC-257 melanoma; 9.41 µM with MALME-3M melanoma; 6.36 µM in the test with RXF 393 renal; 5.34 µM with SW-620 colon. The GI50 in the test with SF-539 CNS was 5.72 µM; in the test with HCT-116 colon it was 5.23 µM; in the test with TK-10 renal it was 6.92 µM. For the same molecule, the TGI in the test with 786-0 renal was determined as 14.5 µM; in the test with MOLT-4 leukemia, 4.95 µM; with UACC-257 melanoma, 7.62 µM; with MALME-3M melanoma, 17.9 µM; in the test with RXF 393 renal, 13.4 µM; in the test on SW-620 colon it was 11.5 µM. The results for the TGI in the test on SF-539 CNS, with HCT-116 colon and in the test with TK-10 renal were 13.4 µM, 11.7 µM and 13.6 µM, respectively.

As for `CC(C)OP(=O)(OC(C)C)C(=NCCN=C(NNc1ccc([N+](=O)[O-])cc1)P(=O)(OC(C)C)OC(C)C)NNc1ccc([N+](=O)[O-])cc1`, the TGI with 786-0 renal, in the test on MOLT-4 leukemia, in the test on UACC-257 melanoma, with MALME-3M melanoma, in the test with SW-620 colon and in the test with SF-539 CNS was over 100 µM throughout. In addition, the TGI in the test on HCT-116 colon and in the test on TK-10 renal was over 100 µM each time.

For the molecule `O=[N+]([O-])C(/C=C(\Cl)n1nnc2ccccc21)=C(/Cl)n1nnc2ccccc21`, the TGI in the test with 786-0 renal, with MOLT-4 leukemia, in the test with UACC-257 melanoma, in the test with MALME-3M melanoma, in the test on RXF 393 renal and in the test with SF-539 CNS was over 100 µM each time. Besides, the TGI in the test with HCT-116 colon and with TK-10 renal was over 100 µM each time.

Regarding `Cc1ccc(NC(=O)c2cc3cc(N=Nc4ccccc4C(=O)O)ccc3oc2=O)cc1`, the TGI in the test with 786-0 renal is over 100 µM; in the test with MOLT-4 leukemia, over 100 µM; in the test with UACC-257 melanoma it was 59.4 µM; in the test on MALME-3M melanoma, over 100 µM; in the test with RXF 393 renal, over 100 µM; in the test with SW-620 colon, over 100 µM. Moreover, the TGI is 98.5 µM in the test on SF-539 CNS, over 100 µM in the test on HCT-116 colon and over 100 µM with TK-10 renal.

For `O=S1(=O)OCCOS(=O)(=O)C1Br`, the TGI in the test on 786-0 renal, in the test on MOLT-4 leukemia, in the test with UACC-257 melanoma, in the test on MALME-3M melanoma, with SW-620 colon and in the test on SF-539 CNS was over 100 µM in each case. Moreover, the TGI in the test on HCT-116 colon and in the test with TK-10 renal was over 100 µM in each case.

On to `CC(=O)OC1COC(n2ccc3cc(Br)c([N+](=O)[O-])cc32)C(OC(C)=O)C1OC(C)=O` (stereo not given), for which the TGI is 97.9 µM in the test on 786-0 renal; 52 µM in the test with UACC-257 melanoma; 72.5 µM with MALME-3M melanoma; over 100 µM with RXF 393 renal; over 100 µM in the test on SW-620 colon; 44.4 µM in the test on SF-539 CNS. The molecule further had a TGI with TK-10 renal of 81.7 µM.

In the case of `COc1cc(NCc2ccc3oc(=O)c(-c4ccccc4)nc3c2)cc(OC)c1OC`, the TGI in the test with 786-0 renal, with MOLT-4 leukemia, with UACC-257 melanoma, with RXF 393 renal, with SW-620 colon and in the test with SF-539 CNS was over 10 µM each time. The TGI with HCT-116 colon and in the test on TK-10 renal was over 10 µM throughout.

Regarding `CN(C)c1ccc(/C=C(\NC(=O)c2ccccc2)c2nc3ncncc3[nH]2)cc1`, the TGI in the test on 786-0 renal, in the test on MOLT-4 leukemia, in the test on MALME-3M melanoma, in the test on RXF 393 renal, in the test with SW-620 colon and in the test on SF-539 CNS was over 100 µM in each case. In the test on TK-10 renal, the TGI is over 100 µM.

As to `CCCCCCN(CCCCCC)C(=O)Cc1c2n(c3ccccc13)Cc1ccccc1-2`, the TGI with 786-0 renal, in the test with MOLT-4 leukemia, with UACC-257 melanoma, in the test on MALME-3M melanoma, in the test on RXF 393 renal and with SW-620 colon was over 100 µM each time. In addition, the TGI in the test with SF-539 CNS, in the test on HCT-116 colon and with TK-10 renal was over 100 µM in each case.

As for `CC(=O)/C(=C\c1cccc([N+](=O)[O-])c1)C(=O)Nc1ccccc1C`, the TGI in the test on 786-0 renal, in the test with MOLT-4 leukemia, with UACC-257 melanoma, with MALME-3M melanoma, in the test with RXF 393 renal and in the test with SW-620 colon was over 100 µM each time. For the same molecule, the TGI with SF-539 CNS, in the test with HCT-116 colon and in the test on TK-10 renal was over 100 µM each time.
